Experiments:
[1] = target: Human immunodeficiency virus type 1 protease (Human immunodeficiency virus 1) (UniProt Q72874); experiment: The compound was evaluated for irreversible inhibition of HIV-1 protease
[2] = target: Human immunodeficiency virus type 1 protease (Human immunodeficiency virus 1) (UniProt Q72874); experiment: The compound was evaluated for irreversible inhibition of HIV-1 protease at pH 6.5
[3] = target: Human immunodeficiency virus type 1 protease (Human immunodeficiency virus 1) (UniProt Q72874); experiment: The compound was evaluated for irreversible inhibition of HIV-1 protease at 20 uM
[4] = Bimolecular rate constant is the ratio of Vinact/Kinact
[5] = target: Human immunodeficiency virus type 1 protease (Human immunodeficiency virus 1) (UniProt Q72874); experiment: Maximal inactivation rate towards HIV-1 protease was evaluated

| K inact [1] [µM] | inhibition [3] [%] | SMILES | also measured |
| --- | --- | --- | --- |
| – | 88 | CC(C)C(NC(=O)OCc1ccccc1)C(=O)OC[C@@H]1O[C@@H]1COc1ccc([N+](=O)[O-])cc1 (some centres not stated) | K inact [2]: 1.8 µM; Ratio [4]: 140000 M⁻¹ min⁻¹; Vinact [5]: 0.26 min⁻¹ |
| 0.075 | – | CC(C)C(NC(=O)OCc1ccccc1)C(=O)N[C@@H](Cc1ccccc1)[C@@H]1O[C@@H]1[C@H](Cc1ccccc1)NC(=O)C(NC(=O)OCc1ccccc1)C(C)C (some centres not stated) | – |
| – | 30 | COC(=O)C(CC(C)C)NC(=O)[C@@H]1O[C@@H]1COc1ccc([N+](=O)[O-])cc1 (some centres not stated) | – |
| – | 22 | COC(=O)C(NC(=O)[C@@H]1O[C@@H]1COc1ccc([N+](=O)[O-])cc1)C(C)C (some centres not stated) | – |
| – | 25 | CC(C)C(NC(=O)OCc1ccccc1)C(=O)NC(C(=O)OC[C@@H]1O[C@@H]1COc1ccc([N+](=O)[O-])cc1)C(C)C (some centres not stated) | – |

Second part, the compound before the results:

| SMILES | K inact [1] [µM] | inhibition [3] [%] | also measured |
| --- | --- | --- | --- |
| O=C(OCC1c2ccccc2-c2ccccc21)N1CCC2OC2C1 (configuration not stated) | 65 | – | – |
| O=[N+]([O-])c1ccc(OCC2CO2)cc1 (configuration not stated) | 11000 | – | – |
| CC(C)C[C@@H]1O[C@@H]1[C@H](Cc1ccccc1)NC(=O)[C@H](C)NC(=O)[C@H](Cc1ccccc1)NC(=O)OCc1ccccc1 | 20 | – | – |
| COC(=O)C(CC(C)C)NC(=O)[C@@H]1O[C@@H]1CCc1ccccc1 (some centres not stated) | – | 19 | – |

From ChEMBL document CHEMBL1149993, “Simple cis-epoxide-based inhibitors of HIV-1 protease” (Bioorg Med Chem Lett, 1997)
